# Data: patent US10626148B2, “Glycopeptides conjugates and uses thereof” (priority 2015, dated 2020)
# Legend:
# [1] = system: VRE; test: Cell wall biosynthesis inhibition, UDPMurNAc-pp accumulation; format: cell-based
# Method: In order to investigate whether the new installed properties of vancomycin derivative on inhibition of cell wall (peptidoglycan) biosynthesis against VRE, the accumulation of UDP-linked peptidoglycan precursor, UDP-N-acetyl-muramyl-pentadepsipeptide (UDPMurNAc-pp) was determined after treating the bacteria (VRE) with test compounds. Analysis of the cytoplasmic peptidoglycan nucleotide precursor pool was examined using VRE cells grown in 25 mL MHB. Cells were grown to an A600 nm (OD600) of 0.6 and incubated with 130 μg/mL of chloramphenicol for 15 min. Then, test compounds vancomycin (5 μM), compound 4 and physical mixture of compound 4 with zinc sulphate (5 μM) were added and incubated for another 60 min. Cells were collected and washed with sterile water to remove the antimicrobial agents and then extracted with boiling water. The cell extract was then centrifuged and the supernatant lyophilized. Then, the lyophilized powder was dissolved in 2 mL of water and pH was adjusted to 2.0 with 20% phosphoric acid. Now, the UDP-linked cell wall precursors in the solution were analyzed by RP-HPLC monitoring the UV absorbance peak at 260 nm wavelength and confirmed by HR-MS mass spectrometry.
# [2] = In-vivo toxicology, systemic toxicity; conditions: 100 mg/kg
# Method: To evaluate maximum tolerability of the new glycopeptide, systemic toxicity was performed on CD-1 female mice. Each mouse was injected with a 0.2 mL of freshly prepared compound 4 solution in saline. The dose of the compound administered was 100 mg/kg (n=5).
# [3] = system: VREs ATCC 51575; format: in vivo, E. faecalis; conditions: CD-1 mice, 12 mg/kg i.p. once daily, three doses
# Method: Female CD-1 mice 6 to 8 weeks of age and weighing 20 to 25 g were used in this study. On day −7, all mice were injected intravenously (i.v.) with 0.2 mL of 0.2% λ-carrageenan to increase their susceptibility to bacterial renal infection. λ-Carrageenan increases mice susceptibility to renal infection following i.v. injection, possibly by forming a lattice structure in renal tissue and forming a support structure for bacterial attachment and growth. Bacterial strains that fail to cause renal infection in normal mice produce significant renal infections in λ-carrageenan-treated mice. On day 0, all mice were injected i.v. with 0.2 mL of the bacterial culture (VREs ATCC 51575, 10^8 CFU/mouse) through the tail vein. Four hours after the bacterial inoculation, mice were treated intraperitoneally (i.p.) with vancomycin, compound 4 and linezolid at 12 mg/kg of body weight or 0.2 mL of saline (0.9% NaCl) control (n=5). All the test compounds or saline were administered once daily for an additional two consecutive days for a total of three doses. All mice were sacrificed on day 3. Both kidneys from each mouse were removed aseptically and homogenized in 10 mL of saline. The dilutions of the homogenate were plated onto sheep blood agar plates, which were incubated overnight at about 37° C. The bacterial titer was expressed as log10 CFU/g of kidney weight.
# [4] = system: meropenem-resistant NDM-1 bacteria; test: Combination with meropenem against NDM-1 gram negative bacteria; format: cell-based; conditions: in combination with meropenem
# Method: Test compounds were assayed in a micro-dilution broth format. Stock solutions were made by serially diluting the compounds using autoclaved millipore water or broth media. The antibacterial activity of the compounds was determined against gram positive bactreia like methicillin-resistant S. aureus (MRSA), vancomycin-intermediate-resistant S. aureus (VISA), vancomycin-sensitive E. faecium (VSE), vancomycin-resistant E. faecalis and vancomycin-resistant E. faecium (VRE). Antibacterial activity of dipicolyl-vancomycin conjugate conjugate (4) in combination with meropemem was determined against gram-negative bacteria such as K. pneumoniae ATCC BAA2146, clinical isolates K. pneumoniae R3949, K. pneumoniae R3934, E. coli R3336 and A. baumanii R676. Bacteria, to be tested, were grown for about 10 h in the suitable media, MRSA, VISA and gram negative bacteria were grown in Yeast-dextrose broth (about 1 g of beef extract, about 2 g of yeast extract, about 5 g of peptone and about 5 g of NaCl in about 1000 mL of sterile distilled water (pH-7)). […] This 6 h grown culture gives about 10^9 cfu/mL and this was determined by spread plating method. […] The plates were then incubated at about 37° C., 150 rpm in the incubator and O.D at 620 nm was recorded at an interval of about 24 h using TECAN (Infinite series, M200 pro) Plate Reader. Each concentration had triplicate values and the whole experiment was done at least twice and the MIC value was determined by taking the average of triplicate O.D. values for each concentration and plotting it against concentration. […]
# Then, the antibacterial activities of Dipicolyl-vancomycin conjugate (4) is checked in combination with meropenem against New-Delhi β-lactamase producing gram negative bacteria such as K. pneumoniae BAA2146, clinical isolates K. pneumoniae R3949, K. pneumoniae R3934, E. coli R3336 and A. baumanii R676. […] Further we have also evaluated the antibacterial activity of dipicolyl-vancomycin conjugate (4) in presence of zinc sulphate, wherein it forms dipicolyl-vancomycin-zinc complex (5).
# [5] = system: Vancomycin-resistant E. faecium (VanA, ATCC 51559); test: MIC, micro-dilution broth, VREm; format: cell-based
# Method: Test compounds were assayed in a micro-dilution broth format. Stock solutions were made by serially diluting the compounds using autoclaved millipore water or broth media. The antibacterial activity of the compounds was determined against gram positive bactreia like methicillin-resistant S. aureus (MRSA), vancomycin-intermediate-resistant S. aureus (VISA), vancomycin-sensitive E. faecium (VSE), vancomycin-resistant E. faecalis and vancomycin-resistant E. faecium (VRE). Antibacterial activity of dipicolyl-vancomycin conjugate conjugate (4) in combination with meropemem was determined against gram-negative bacteria such as K. pneumoniae ATCC BAA2146, clinical isolates K. pneumoniae R3949, K. pneumoniae R3934, E. coli R3336 and A. baumanii R676. Bacteria, to be tested, were grown for about 10 h in the suitable media, MRSA, VISA and gram negative bacteria were grown in Yeast-dextrose broth (about 1 g of beef extract, about 2 g of yeast extract, about 5 g of peptone and about 5 g of NaCl in about 1000 mL of sterile distilled water (pH-7)). For solid media, about 5% agar was used along with above mentioned composition. VSE and VRE were cultured in Brain Heart Infusion broth (Himedia). The bacterial samples were freeze dried and stored at −80° C. About 5 μL of these stocks were added to about 3 mL of the nutrient broth or Brain Heart Infusion broth and the culture was grown for about 6 h at about 37° C. prior to the experiments. This 6 h grown culture gives about 10^9 cfu/mL and this was determined by spread plating method. The 6 h grown culture was diluted to give effective cell concentration of about 10^5 cfu/mL which was then used for determining MIC. Compounds were serially diluted, in sterile water (2-fold dilution is employed) in a way that the working concentration was about 10 μM for MRSA, and VSE while for VRE, VISA and gram negative bacteria; it was about 100 μM. About 50 μL of these serial dilutions were added to the wells of 96 well plate followed by the addition of about 150 μL of bacterial solution. The plates were then incubated at about 37° C., 150 rpm in the incubator and O.D at 620 nm was recorded at an interval of about 24 h using TECAN (Infinite series, M200 pro) Plate Reader. Each concentration had triplicate values and the whole experiment was done at least twice and the MIC value was determined by taking the average of triplicate O.D. values for each concentration and plotting it against concentration. The data was then subjected to sigmoidal fitting.
# [6] = target: T1, NDM-1 enzyme (Klebsiella pneumoniae, UniProt C7C422); test: NDM-1 enzyme inhibition, nitrocefin substrate; format: biochemical
# T1 construct: made in house; host or cells: E. coli BL21 (DE3)
# Method: The NDM-1 was produced by E. coli BL21 (DE3) carrying pET30a-NDM-1 in LB medium. Initially, the purified NDM-1 enzyme (5 nM, HEPES buffer, pH-7.4) was supplemented with 20 μM ZnSO4 for 30 min. Next, the enzyme was pre-incubated with the inhibitor (compound 4) for 20 min prior to the initiation of the assay by the addition of the substrate (Nitrocefin, 30 μM). Assays were read in 96-well microplate format at 490 nm (absorbance) using TECAN plate reader (Infinite Pro.) at 37° C. IC50s were deduced from a plot of percent loss of activity versus inhibitor concentration.
# T1 sequence (C7C422 29-270, looked up, species assumed): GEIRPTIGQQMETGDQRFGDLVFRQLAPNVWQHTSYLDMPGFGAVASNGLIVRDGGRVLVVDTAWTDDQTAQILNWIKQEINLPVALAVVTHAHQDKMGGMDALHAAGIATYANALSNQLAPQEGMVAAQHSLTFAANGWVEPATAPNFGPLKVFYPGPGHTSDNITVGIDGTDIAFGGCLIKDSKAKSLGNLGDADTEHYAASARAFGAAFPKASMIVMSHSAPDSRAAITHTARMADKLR
compound,measurement,setting,value
"CN[C@H](CC(C)C)C(=O)N[C@H]1C(=O)N[C@@H](CC(N)=O)C(=O)N[C@H]2C(=O)N[C@H]3C(=O)N[C@H](C(=O)N[C@H](C(=O)NCCCCCCN(Cc4ccccn4)Cc4ccccn4)c4cc(O)cc(O)c4-c4cc3ccc4O)[C@H](O)c3ccc(c(Cl)c3)Oc3cc2cc(c3O[C@H]2OC(CO)[C@H](O)C(O)C2O[C@H]2CC(C)(N)[C@H](O)C(C)O2)Oc2ccc(cc2Cl)[C@H]1O (some centres unmarked) [Compound 4, Dipicolyl-vancomycin conjugate]","cell wall biosynthesis inhibition (accumulation of UDPMurNAc-pp, peak at 260 nm)",[1]; 60 min,greater cell wall biosynthesis inhibition compared to vancomycin
same,cell wall biosynthesis inhibition (accumulation of UDPMurNAc-pp),[1]; in presence of Zn2+ (zinc sulphate 5 μM),enhanced cell wall biosynthesis inhibition
same,survival at 14 days,[2]; CD-1 female mice,All the mice were found to survive
same,LD50 at 14 days,"[2]; female, CD-1, mouse, in vivo",> 100 mg/kg
same,reduction of bacterial titer from infected kidneys in comparison to vancomycin,[3],reduced bacterial titer from the infected kidneys more effectively
same,CFU reduction compared to vehicle treated control (saline),[3]; kidneys,~5.0 log10 CFU
same,resensitization of meropenem-resistant NDM-1 bacteria to meropenem (synergistic activity),[4],able to resensitize
same,MIC,"[5]; Enterococcus faecium, ATCC51559",1.2 µM
same,fold more active than vancomycin,"[5]; VREm (VRE), ratio of MIC values",about 700 fold
same,IC50,[6],~6 µM
same,effect on the activity of NDM-1,[6]; nitrocefin as substrate,potent in-vitro dose-dependent inhibition
